From patent US6958345B2, “2-hydroxymethylcyclopropylidene methylpurines and -pyrimidines as antiviral agents” (The Regents of the University of Michigan, priority 1997, dated 2005)

Assays:
[1] = tested on: HSV-1; test: HSV-1 ELISA in BSC-1 cells; assay type: cell-based, herpes simplex 1 (HSV-1); conditions: BSC-1 cells; ELISA
Procedure: Virological procedures. Stock HCMV was prepared by infecting HFF cells at a multiplicity of infection (m.o.i.) of <0.01 plaque-forming units (p.f.u.) per cell. Cell growth medium was changed every four days until cytopathology was evident in all cells (approximately 21 days). Supernatant fluids were retained as the virus stock. High titer HSV-1 stocks were prepared by infecting KB cells at an m.o.i. of <0.1 as detailed previously. Turk, S. R., et al., Antimicrob. Agents Chemother. 31:544-550 (1987). Virus titers were determined using monolayer cultures of HFF cells for HCMV and monolayer cultures of BSC-1 cells for HSV-1 as described earlier. Prichard, M. N., et al., J. Virol. Methods 28:101-106 (1990). Briefly, HFF or BSC-1 cells were planted as described above in 96-well cluster dishes and incubated overnight at 37° C. in a humidified 3% CO297% air atmosphere. The next day cultures were inoculated with HCMV or HSV-1 and serially diluted 1:3 across the remaining eleven columns of the 96-well plate. Cultures were incubated at 37° C. for 2 hr to permit virus adsorption and then virus inoculum was replaced with 0.2 mL of fresh medium. Cultures were incubated for seven days for HCMV, two or three days for HSV-1, medium was removed, and the cell sheets were stained with 0.1% crystal violet in 20% methanol. Plaques were enumerated under 20-fold magnification in wells having the dilution which gave 5 to 20 plaques per well. Virus titers were calculated according to the following Formula: Titer (p.f.u./mL)=number of plaques×5×3^n; where n represents the nth dilution of the virus used to infect the well in which plaques were enumerated.
(b) HSV-1. An enzyme-linked immunosorbent assay (ELISA) was employed to detect HSV-1. 96-well cluster dishes were planted with BSC-1 cells at 10,000 cells per well, in a total volume of 200 μL per well of MEM(E) plus 10% calf serum. After overnight incubation at 37° C., drug and HSV-1 was added at the rate of 100 PFU/well. ELISA plates were blocked with 200 μL per well of 10% calf serum and 0.05% tween in HBS. After incubation for 30 minutes, the blocking agent was rinsed two times with HBS-T. A 1:400 dilution of AP conjugated rabbit anti-HSV-1 antibody in HBS-F was added. Plates were sealed with adhesive sheet, and incubated on rocker for one hour at 37° C. Plates were developed in the dark with 100 μL per well of substrate solution containing p-nitrophenyl phosphate. Plates were read at […]. Drug effects were calculated as a percentage of the reduction in virus in the presence of each drug concentration compared to the titer obtained in the absence of drug. Acyclovir was used as a positive control in all experiments.
Data Analysis. Dose-response relationships were constructed by linearly regressing the percent inhibition of parameters derived in the preceding sections against log drug concentrations. Fifty-percent inhibitory (IC50) concentrations were calculated from the regression lines. Samples containing positive controls (acyclovir for HSV-1, ganciclovir for HCMV, and 2-acetylpyridine thiosemicarbazone for cytotoxicity) were used in all assays.

[2] = tested on: HHV-6; test: HHV-6 ELISA in HSB-2 cells; assay type: cell-based, human herpes virus 6 (HHV 6)
Procedure: (c) HHV-6. In this case, enzyme-linked immunosorbent assay (ELISA) was performed in covalent amine plates (Costar, Cambridge, Mass.). The plates were activated by the addition of a homobifunctional crosslinking agent, bis(sulfosuccinimidyl) suberate, which was dissolved at 1 mg/mL in 30 mL of phosphate buffered saline (PBS: 137 mM NaCl, 2.7 mM KCl, 4.3 mM Na2HPO4, 1.4 mM KH2PO4, pH 7.4) and 300 μL of the crosslinker was added to each well in the covalent plate. The crosslinker reacted with the amine function on the plate for 30 min at room temperature. The byproduct, sodium N-hydroxysuccinimide sulfite, was removed by decanting and washing the plate twice with PBS. Samples consisting of 150 μl of mixed suspended HSB2 cells from the original drug-treated plate were solubilized in an equal volume of 10% Triton X-100 in coating buffer (15 mM Na2CO3, […] NaHCO3, pH 9.6). The plate was covered and then incubated for 1 h at 37° C. in a 5% CO2 atmosphere. These binding conditions facilitated covalent attachment of the antigen to the free end of the crosslinker.
After covalent binding, the antigen solution was decanted and the plate was washed six times in HEPES buffered saline (Shipman, C., Jr., Proc. Soc. Exp. Biol. 130:305-310 (1969)) with 0.05% Tween 20 (HBS-T ), soaking for three min for each wash. […] Absorbance in each well was determined at 450/570 nm.

## Nc1ncnc2c1ncn2C=C1CC1CO (stereo not drawn) [1 (B = adenine), Example 5, syn-N^9-(2-hydroxymethylcyclopropylidenemethyl)adenine]
[1]
  IC50: 3.7 µM
[2]
  IC50: 3 µM
